# Measurements from article PMC8961585, “Inhibition of Polyglutamine Misfolding with D-Enantiomeric Peptides Identified by Mirror Image Phage Display Selection” (Biomolecules, 2022).
# What was measured:
# [1] = molecular target: T1, L-ARQ46 (Homo sapiens, UniProt P10275); test: ThT aggregation assay of ARQ46 seeded with soluble aggregate fragments; assay type: biochemical; details: 15 µM ARQ46
# T1 construct: L-ARQ46; purchased peptides & elephants GmbH (Henningsdorf, Germany); host or cells: chemical synthesis
# T1 sequence (P10275 with tags, fused parts or gaps): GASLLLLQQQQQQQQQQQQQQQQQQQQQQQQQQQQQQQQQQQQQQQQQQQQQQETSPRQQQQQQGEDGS
# Protocol: (§1) Following the disaggregation protocol that Chen et al. published, the polyglutamine proteins were incubated for three days in 1:1 TFA/Hexafluoroisopropanol (HFIP) or overnight in 100% trifluoroacetic acid (TFA). Afterwards the solvent was evaporated with N2 gas treatment and the polyglutamine protein redissolved in the experiment buffer.
# (§2) Thioflavin T (ThT) assays were performed to monitor the time-dependent formation of amyloidogenic aggregates. The assays were performed at 37 °C in TBS pH 7.5 (15 µM ThT) with 300 rpm double orbital shaking. All buffers were sterile filtrated beforehand. Polyglutamine proteins were disaggregated as described before. The peptides were pre-diluted in TBS pH 7.5. The disaggregated polyglutamine protein in buffer was mixed with 15 µM ThT and the pre-diluted peptides in a 96-well half-area flat-bottom microplate (Corning, New York, NY, USA). During the experiment all wells contained 100 µL ThT solution. Sealing the plate with foil (Thermo Fisher Scientific, Waltham, MA, USA) helped to prevent evaporation. The progression of fluorescence intensity was tracked by a microplate reader (BMG Labtech, Ortenberg, Germany).
# For seeded experiments, the slope of the curve was considered instead of the lag-time because seeding eliminated the lag-time. The slope was determined by plotting the first values and fitting with a linear fit. The considered period (2 to 3.5 h) was similar for the curves compared with.
# The disaggregated ARQ46 was diluted to 300 µM and incubated at 37 °C, 400 rpm. After 24 h large, white aggregates were visible in the tube. The sample was sonicated (Sonopuls, Bandelin electronic GmbH & Co. KG, Berlin, Germany) four times for 15 s with an amplitude of 60%. Between the sonification steps the sample was cooled on ice. Post sonification the sample was turbid. It was centrifuged at 100,000 g for 1 h at 4 °C to remove insoluble aggregates from the solution. The clear supernatant was used for seeding with soluble aggregate fragments.
# Figure 5 QF2D-1, QF2D-2 and QF2D-6 inhibit the aggregation of ARQ46 in presence of soluble aggregate fragment seeds; ARQ46 was aggregated, and the solution was subject to spinning at 100,000 g in an ultracentrifuge. The supernatant was preincubated with 15 µM and 7.5 µM of one of the selected compounds in TBS at 37 °C. After 23 h, 15 µM monomeric ARQ46 were added, and the fluorescence intensity was measured every 15 min at λex = 448 nm and λem = 482 nm with agitation at 300 rpm between measurements. P8 served as a control compound that was not selected on polyglutamine, whereas QBP1 is claimed to bind polyglutamine tracts and inhibit polyglutamine-driven aggregation. (A) Fluorescence intensity of P8, QBP1, QF2D-1, QF2D-2 and QF2D-6 in equimolar and sub stoichiometric ratio at 90 h. (B) The data points acquired between 24 h and 26 h- shortly after monomer addition- were fitted with a linear fit. The slope was compared. (C) Measurement example of the described ThT-assay with ARQ46 (black), P8 (light grey), QBP1 (grey) and QF2D-2 (dark grey). The mean fluorescence intensity is shown for each time point. The experiment was performed in two-fold determination.
# [2] = molecular target: T1, L-ARQ46; test: ThT aggregation assay, monomeric ARQ46, unseeded; assay type: biochemical
# Protocol: as §1, §2
# The lag-time was estimated as follows: the average variation of the curve was determined with the last ten values of the steady state. […]
# The progression of fluorescence intensity was measured every 30 min at λex = 410 nm and λem = 482 nm with 30 s agitation at 300 rpm before every measurement. (A) Fluorescence intensity measured at 90 h of the aggregation assay starting with 15 µM monomeric ARQ46 without peptide and with 15 µM QF2D-1, QF2D-2, QF2D-3, QF2D-4, QF2D-5, QF2D-6, QF2D-7, QF2D-8 or QF2D-9. […] The mean fluorescence intensity is shown for each time point. […]
# Figure 8 Effect of different QF2D-2 concentrations on the aggregation of ARQ46; ThT assay with L-ARQ46 was performed at 37 °C in TBS pH 7.5. The progression of fluorescence intensity was measured every 30 min at λex = 410 nm and λem = 482 nm with 30 sec agitation at 300 rpm before every measurement. […] The mean fluorescence intensity is shown for each time point. […]
# [3] = molecular target: T1, L-ARQ46; test: SPR binding to immobilized L-ARQ46; details: L-ARQ46 immobilized on CM5 chip via amine coupling (1400 RU); steady state affinity fit; TBS pH 7.5, 0.05% Tween, 25 °C; multi-cycle, up to 20 µM; data not shown
# Protocol: Binding studies were performed with surface plasmon resonance (SPR) in a Biacore T200 device (Biacore, GE Healthcare, Uppsala, Sweden). The L-ARQ46 was immobilized on a CM5 Chip via amine coupling (1400 RU). The selected D-enantiomeric peptide compound QF2D-2 was dissolved in the running buffer (TBS pH 7.5 with 0.05% Tween) and served as the analyte in multi-cycle experiments, with the highest peptide concentration being 20 µM. Experiments were performed at 25 °C with a flow rate of 45 µL/min. After a contact time of 110 s and a dissociation time of 400 s, the surface was regenerated with low pH (Glycin-HCl, pH 2.2) for 30 s with a flow rate of 30 µL/min. The data were evaluated via affinity fit of the steady state using the biacore evaluation software.
# [4] = Spontaneous aggregation of polyglutamine peptides (ThT); assay type: physicochemical; details: no inhibitor, TBS pH 7.5, 37 °C
# Protocol: as §1, §2
# (§3) Figure 1 Disaggregation of ARQ46; Examination of ARQ46 post disaggregation. […] (B) ThT-Measurement of 15 µM ARQ46, disaggregated with 1:1 TFA/HFIP, in TBS pH 7.5 measured at 37 °C.
# [5] = CD secondary structure of polyglutamine peptides; assay type: physicochemical
# Protocol: as §1
# After disaggregation, polyglutamine proteins were dissolved in TBS pH 7.5 and measured in a quartz crystal cuvette with 1 mm light path (Hellma Analytics, Müllheim, Germany) in a CD spectrometer (J-1100, Jasco Deutschland GmbH, Pfungstadt, Germany) with 4 acquisitions. The High tension voltage (HT) was monitored throughout the experiment. Data for which the HT exceeded 600 V were excluded. Buffer measurements served as references. Analogous, samples containing 50 µM ARQ46 and 50 µM QF2D-1 or QF2D-2 were measured and referenced with the measurement of 50 µM QF2D-1 or QF2D-2 alone. […] The CD spectra of the samples were monitored after 24 h, 48 h and 168 h of aggregation.
# as §3
# Figure 2 CD-spectrum of D-ARQ23 disaggregated with 100% TFA; Prior to the phage display selection D-ARQ23 was disaggregated with TFA to ensure selection on monomeric target. CD-spectrum was recorded in 10 mM Tris pH 8.
# [6] = test system: Drosophila; set-up: method as in PMID 12761040; details: cited from earlier work
# [7] = test system: polyglutamine proteins; details: cited from earlier work
# Excerpt: Patients suffering from polyglutamine diseases present with aggregates in their neurons before symptom onset and therefore probably also before treatments start. Thus, a promising drug candidate should inhibit the aggregation in presence of pre-formed aggregates. […] The effects of the compounds were compared with two controls. The first, P8, has been selected on SOD1 and should not bind to polyg ...
# [8] = test system: polyglutamine disease mouse model; set-up: method as in PMID 18603372, PMID 23226463, PMID 23504628; details: cited from earlier work
# [9] = soluble aggregate seeds, slope 24 to 26 h, peptide concentration not stated (15 or 7.5 µM)
compound,measurement,setting,value
C[C@H](O)[C@@H](NC(=O)[C@@H](CO)NC(=O)[C@@H](Cc1c[nH]c2ccccc12)NC(=O)[C@@H](CCC(N)=O)NC(=O)[C@@H](CO)NC(=O)[C@@H](CCC(N)=O)NC(=O)[C@H](N)CO)C(=O)N1CCC[C@@H]1C(=O)N[C@H](CCC(N)=O)C(=O)NCC(=O)N[C@H](CCCCN)C(=O)N[C@H](Cc1c[nH]c2ccccc12)C(=O)N[C@H](CO)C(=O)N[C@H](Cc1c[nH]cn1)C(=O)N[C@H](Cc1c[nH]c2ccccc12)C(=O)N1CCC[C@@H]1C(=O)N[C@H](CCCNC(=N)N)C(=O)N[C@H](CCCNC(=N)N)C(=O)N[C@H](CCCNC(=N)N)C(=O)O [QF2D-2],Reduction of slope compared to QBP1,[1]; [9],86%
same,Reduction of slope compared with P8,[1]; [9],96%
same,"Fluorescence intensity of the steady state, % of that measured for ARQ46","[2]; at 90 h, equimolar, 15 µM ARQ46 and 15 µM peptide, TBS pH 7.5, 37 °C, λex 410 nm, λem 482 nm, three-fold determination",approx. 70%
same,Kd,[3],11 µM
"KKQQQQQQQQQQQQQQQQQQQQQQQ QQQQQQQQQQQQQQQQQQQQQQQKK [L-K2Q46K2, universal polyglutamine peptide]",Spontaneous aggregation,[4],spontaneously formed amyloid fibrils after few hours lag time
L-ARQ46: androgen receptor fragment with 46 consecutive glutamine residues,Spontaneous aggregation,[4],spontaneously formed amyloid fibrils after few hours lag time
same,Beta-sheet structure after incubation,"[5]; TBS pH 7.5, 37 °C, 400 rpm, 24 h",100%
same,Secondary structure after disaggregation,[5]; freshly disaggregated (100% TFA),a mixture of random coil and alpha-helical structure
SNWKWWPGIFD [QBP1],Effect in presence of soluble aggregate fragments relative to selected peptides,[1]; soluble aggregate seeds,considerably smaller than that of the selected peptides
same,Effect on aggregation of monomeric ARQ46 (repeat with controls),"[2]; unseeded, ratio not stated, data not shown",drastically inhibited the aggregation
same,Therapeutic effect in Drosophila,[6],had a therapeutic effect in Drosophila
same,Inhibition of polyglutamine aggregation,[7],claimed to inhibit the aggregation of polyglutamine proteins
same,Neurological effect in mouse model,[8],did not yield beneficial neurological effects
YDTPKHKDKTWPMM [P8],"Slope of ThT curve after monomer addition (24 to 26 h), in words","[1]; 15 or 7.5 µM peptide preincubated 23 h with soluble seeds, TBS, 37 °C, two-fold determination",the steepest
same,Lag-phase in presence of soluble aggregates,"[1]; soluble aggregate fragment seeds, TBS, 37 °C, two-fold determination",no lag-phase observable
same,"Effect on aggregation of monomeric ARQ46, equimolar (repeat with controls)","[2]; unseeded, equimolar, data not shown",slight inhibiting effect
